Structures can show the parent of a compound that is named as a salt.

This assay relates to human liver cancer-derived cell line Hep3B. Description: In vitro erythropoietin (EPO) induction activity in Hep3B cells (EPO ELISA of culture supernatant). It is filed as cell-based. The conditions noted are these: test compound 12.5 μM, 32 hours at 37° C., multiple of the EPO concentration in the control (0.5% DMSO). The protocol: In vitro erythropoietin (EPO) induction activity of test compounds was evaluated using human liver cancer-derived cell line Hep3B (ATCC, Manassas, Va.). Hep3B cells were cultured overnight at 37° C. in Dulbecco's modified Eagle's medium (DMEM) in the presence of 10% fetal bovine serum (FBS) (24-well plate, 1.0×10^5 cells/well). After replacing with fresh DMEM (+10% FBS) containing a test compound dissolved in 0.5% dimethyl sulfoxide (DMSO) (prepared to a concentration of 12.5 μM) or a solvent control (0.5% DMSO), the cells were cultured for 32 hours at 37° C. After recovering the culture supernatant, EPO concentration in the culture supernatant was quantified using human EPO ELISA kits (StemCell Technologies).
The EPO concentration using a compound of each example as a test compound was expressed as a multiple of the EPO concentration in the control.
In general terms: ELISA stands for enzyme-linked immunosorbent assay.
As a reminder, the fold induction is the ratio of treated to control signal. Read a low fold induction as little rise in signal. Take `Cc1cccc(CNC(=O)c2cnc(NC(=O)CCC(=O)O)nc2O)c1` [Example 14, 4-{[4-Hydroxy-5-(m-tolylmethylcarbamoyl)pyrimidin-2-yl]amino}-4-oxobutanoic acid]: the fold induction at 12.5 µM worked out at 3.

In turn, `O=C(O)CCC(=O)Nc1ncc(C(=O)NCc2ccc(F)cc2F)c(O)n1` [Example 2, 4-({5-[(2,4-Difluorophenyl)methylcarbamoyl]-4-hydroxypyrimidin-2-yl}amino)-4-oxobutanoic acid] registered a fold induction at 12.5 µM of 7.9.

`O=C(O)CCC(=O)Nc1ncc(C(=O)NCc2ccc(Cl)cc2Cl)c(O)n1` [Example 1, 4-({5-[(2,4-Dichlorophenyl)methylcarbamoyl]-4-hydroxypyrimidin-2-yl}amino)-4-oxobutanoic acid]: the fold induction at 12.5 µM is 3.6.

Take `O=C(O)CCC(=O)Nc1ncc(C(=O)NCc2ccc(F)c(F)c2)c(O)n1` [Example 13, 4-({5-[(3,4-Difluorophenyl)methylcarbamoyl]-4-hydroxypyrimidin-2-yl}amino)-4-oxobutanoic acid]: the fold induction at 12.5 µM amounted to 13.

In the case of `COc1ccc(-c2ccc(C(C)(C)NC(=O)c3cnc(NC(=O)CCC(=O)O)nc3O)cn2)cc1` [Example 10, 4-{[4-Hydroxy-5-({1-[6-(4-methoxyphenyl)pyridin-3-yl]-1-methylethyl}carbamoyl)pyrimidin-2-yl]amino}-4-oxobutanoic acid trifluoroacetate], the fold induction at 12.5 µM amounted to 10.

The compound `O=C(O)CCC(=O)Nc1ncc(C(=O)NCc2ccc(F)cc2Cl)c(O)n1` [Example 3, 4-({5-[(2-Chloro-4-fluorophenyl)methylcarbamoyl]-4-hydroxypyrimidin-2-yl}amino)-4-oxobutanoic acid] had a fold induction at 12.5 µM of 9.5.

For the compound `O=C(O)CCC(=O)Nc1ncc(C(=O)NCc2cccc(-c3ccccc3)c2)c(O)n1` [Example 6, 4-({4-Hydroxy-5-[(3-phenylphenyl)methylcarbamoyl]pyrimidin-2-yl}amino)-4-oxobutanoic acid], the fold induction at 12.5 µM is 3.7.

As for `O=C(O)CCC(=O)Nc1ncc(C(=O)NCc2ccc(F)c(-c3ccccc3)c2)c(O)n1` [Example 5, 4-({5-[(4-Fluoro-3-phenylphenyl)methylcarbamoyl]-4-hydroxypyrimidin-2-yl}amino)-4-oxobutanoic acid], the fold induction at 12.5 µM was 6.3.

On to `COc1ccc(C(NC(=O)c2cnc(NC(=O)CCC(=O)O)nc2O)C2CCOCC2)cn1` (stereo not drawn) [Example 9, 4-[(4-Hydroxy-5-{[(6-methoxypyridin-3-yl)(tetrahydro-2H-pyran-4-yl)methyl]carbamoyl}pyrimidin-2-yl)amino]-4-oxobutanoic acid trifluoroacetate], for which the fold induction at 12.5 µM is 16.

Compound `O=C(O)CCC(=O)Nc1ncc(C(=O)NCc2cccc(F)c2)c(O)n1` [Example 12, 4-({5-[(3-Fluorophenyl)methylcarbamoyl]-4-hydroxypyrimidin-2-yl}amino)-4-oxobutanoic acid] showed a fold induction at 12.5 µM of 7.2.

`O=C(O)CCC(=O)Nc1ncc(C(=O)NCc2cccc(C3CCCC3)c2)c(O)n1` [Example 17, 4-({5-[(3-Cyclopentylphenyl)methylcarbamoyl]-4-hydroxypyrimidin-2-yl}amino)-4-oxobutanoic acid] yielded a fold induction at 12.5 µM of 4.4.

As to `O=C(O)CCC(=O)Nc1ncc(C(=O)NCc2cccc(C(F)(F)F)c2)c(O)n1` [Example 11, 4-[(4-Hydroxy-5-{[3-(trifluoromethyl)phenyl]methylcarbamoyl}pyrimidin-2-yl)amino]-4-oxobutanoic acid], the fold induction at 12.5 µM worked out at 7.5.
